Source: a compilation of properties of binary mixtures (doi:10.1016/j.molliq.2020.113127)

Assay: xn = mol fraction of the nth substance listed
Conditions: 101 kPa

viscosity (313.15 K, x1 = 0.25) [mPa·s]	viscosity (318.15 K, x1 = 0.25) [mPa·s]	viscosity (328.15 K, x1 = 0.25) [mPa·s]	viscosity (333.15 K, x1 = 0.25) [mPa·s]	SMILES	viscosity (298.15 K, x1 = 0.333) [mPa·s]	viscosity (303.15 K, x1 = 0.333) [mPa·s]	viscosity (308.15 K, x1 = 0.333) [mPa·s]	viscosity (313.15 K, x1 = 0.333) [mPa·s]	viscosity (318.15 K, x1 = 0.333) [mPa·s]	viscosity (323.15 K, x1 = 0.333) [mPa·s]
				CC[N+](CC)(CC)CC.[Cl-] + CC(=O)O	34.46	27.81	22.91	19.51	16.53	13.93
53.81	40.74	25.16	20.33	C[P+](c1ccccc1)(c1ccccc1)c1ccccc1.[Br-] + OCCO						
